From ChEMBL document CHEMBL1201862, “PubChem BioAssay data set” (2004)
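Assay format: 96-well plates, 48-hour exposure. Abbreviation: GI50, concentration required for 50% inhibition of growth.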 Activity calls are given as the source filed them. Rule as the data show it: active = GI50 up to about 1.1 µM and inactive = higher.

What was measured:
Experiment in all cases: NCI tumour cell line growth inhibition, 48 h
OVCAR-5 = test system: OVCAR-5
NCI-H460 = test system: NCI-H460
TK-10 = test system: TK-10
UO-31 = test system: UO-31
DU-145 = test system: DU-145
SF-268 = test system: SF-268
RPMI-8226 = test system: RPMI-8226
SK-OV-3 = test system: SK-OV-3
HT-29 = test system: HT-29
MCF7 = test system: MCF7
SF-539 = test system: SF-539
KM12 = test system: KM12
A549 = test system: A549
LOX IMVI = test system: LOX IMVI
Hs-578T = test system: Hs-578T
CCRF-CEM = test system: CCRF-CEM
SNB-75 = test system: SNB-75
Malme-3M = test system: Malme-3M
RXF 393 = test system: RXF 393
SR = test system: SR

Compound: CSc1scc2c1/C(=N/NC(N)=O)CCC2
- GI50 (OVCAR-5): > 100 µM (inactive)
- GI50 (NCI-H460): 94.4 µM (inactive)
- GI50 (TK-10): > 100 µM (inactive)
- GI50 (UO-31): > 100 µM (inactive)
- GI50 (DU-145): 45.2 µM (inactive)
- GI50 (SF-268): 38.5 µM (inactive)
- GI50 (RPMI-8226): 88.1 µM (inactive)
- GI50 (SK-OV-3): > 100 µM (inactive)
- GI50 (HT-29): > 100 µM (inactive)
- GI50 (MCF7): 90.4 µM (inactive)
- GI50 (SF-539): > 100 µM (inactive)
- GI50 (KM12): 86.1 µM (inactive)
- GI50 (A549): 78.3 µM (inactive)
- GI50 (LOX IMVI): > 100 µM (inactive)
- GI50 (Hs-578T): 82.6 µM (inactive)
- GI50 (CCRF-CEM): 41.1 µM (inactive)
- GI50 (SNB-75): 36.7 µM (inactive)

Compound: NCCC(=O)N[C@@H](Cc1cc(O)c(O)c(SCC(NC(=O)CC[C@H](N)C(=O)O)C(=O)NCC(=O)O)c1)C(=O)O (stereo partly drawn)
- GI50 (OVCAR-5): > 50 µM (inactive)
- GI50 (NCI-H460): > 50 µM (inactive)
- GI50 (Malme-3M): > 50 µM (inactive)
- GI50 (TK-10): > 50 µM (inactive)
- GI50 (UO-31): > 50 µM (inactive)
- GI50 (DU-145): > 50 µM (inactive)
- GI50 (SF-268): > 50 µM (inactive)
- GI50 (RPMI-8226): > 50 µM (inactive)
- GI50 (SK-OV-3): > 50 µM (inactive)
- GI50 (HT-29): > 50 µM (inactive)
- GI50 (MCF7): > 50 µM (inactive)
- GI50 (KM12): > 50 µM (inactive)
- GI50 (A549): > 50 µM (inactive)
- GI50 (RXF 393): > 50 µM (inactive)
- GI50 (SNB-75): > 50 µM (inactive)

Compound: C[C@@H]1C[C@@]2(O[C@@H]2C)C(=O)O[C@@H]2CCN3CC=C(COC(=O)[C@]1(C)O)[C@H]23
- GI50 (OVCAR-5): > 100 µM (inactive)
- GI50 (NCI-H460): > 100 µM (inactive)
- GI50 (Malme-3M): > 100 µM (inactive)
- GI50 (TK-10): > 100 µM (inactive)
- GI50 (UO-31): > 100 µM (inactive)
- GI50 (DU-145): > 100 µM (inactive)
- GI50 (SF-268): > 100 µM (inactive)
- GI50 (RPMI-8226): > 100 µM (inactive)
- GI50 (SK-OV-3): > 100 µM (inactive)
- GI50 (HT-29): > 100 µM (inactive)
- GI50 (MCF7): > 100 µM (inactive)
- GI50 (SF-539): > 100 µM (inactive)
- GI50 (KM12): > 100 µM (inactive)
- GI50 (A549): > 100 µM (inactive)
- GI50 (LOX IMVI): > 100 µM (inactive)
- GI50 (Hs-578T): > 100 µM (inactive)
- GI50 (CCRF-CEM): > 100 µM (inactive)
- GI50 (SNB-75): > 100 µM (inactive)

Compound: CCCCOC(=O)c1cc(C(=CCC[C@H]2CC[C@@]3(C)[C@@H](CC[C@@H]4[C@@H]3CC[C@]3(C)[C@@H](C(C)CCCC(C)C)CC[C@@H]43)C2)c2cc(Cl)c(O)c(C(=O)OCCCC)c2)cc(Cl)c1O (stereo partly drawn)
- GI50 (NCI-H460): > 50 µM (inactive)
- GI50 (DU-145): > 50 µM (inactive)
- GI50 (SF-268): > 50 µM (inactive)
- GI50 (RPMI-8226): > 50 µM (inactive)
- GI50 (HT-29): > 50 µM (inactive)
- GI50 (KM12): > 50 µM (inactive)
- GI50 (LOX IMVI): > 50 µM (inactive)
- GI50 (Hs-578T): > 50 µM (inactive)
- GI50 (CCRF-CEM): > 50 µM (inactive)
- GI50 (SNB-75): > 50 µM (inactive)

Compound: O=C(OCc1ccccc1)n1cccc1
- GI50 (OVCAR-5): > 100 µM (inactive)
- GI50 (NCI-H460): > 100 µM (inactive)
- GI50 (SR): 88.3 µM (inactive)
- GI50 (Malme-3M): > 100 µM (inactive)
- GI50 (TK-10): > 100 µM (inactive)
- GI50 (UO-31): 46.3 µM (inactive)
- GI50 (SF-268): > 100 µM (inactive)
- GI50 (RPMI-8226): 54.6 µM (inactive)
- GI50 (SK-OV-3): > 100 µM (inactive)
- GI50 (HT-29): 65.9 µM (inactive)
- GI50 (SF-539): > 100 µM (inactive)
- GI50 (KM12): > 100 µM (inactive)
- GI50 (A549): > 100 µM (inactive)
- GI50 (LOX IMVI): > 100 µM (inactive)
- GI50 (RXF 393): > 100 µM (inactive)
- GI50 (CCRF-CEM): > 100 µM (inactive)
- GI50 (SNB-75): 31.8 µM (inactive)

Compound: CN(C)C(=S)Nc1nnc(NC23CC4CC(CC(C4)C2)C3)s1.[O-][Cl+3]([O-])([O-])O
- GI50 (OVCAR-5): 10 µM (inactive)
- GI50 (NCI-H460): 12.6 µM (inactive)
- GI50 (SR): 15.9 µM (inactive)
- GI50 (Malme-3M): 17.3 µM (inactive)
- GI50 (TK-10): 40.5 µM (inactive)
- GI50 (UO-31): 12.4 µM (inactive)
- GI50 (SF-268): 16.4 µM (inactive)
- GI50 (RPMI-8226): 16 µM (inactive)
- GI50 (SK-OV-3): 43.8 µM (inactive)
- GI50 (HT-29): 5.81 µM (inactive)
- GI50 (SF-539): 10 µM (inactive)
- GI50 (KM12): 18.7 µM (inactive)
- GI50 (A549): 12.4 µM (inactive)
- GI50 (LOX IMVI): 17.5 µM (inactive)
- GI50 (RXF 393): 17.1 µM (inactive)
- GI50 (CCRF-CEM): 15 µM (inactive)
- GI50 (SNB-75): 0.1 µM (active)

Compound: COc1cc(/C=C2\S/C(=N/Nc3nc(-c4ccc(Br)cc4)cs3)NC2=O)cc(OC)c1OC
- GI50 (OVCAR-5): 18.2 µM (inactive)
- GI50 (NCI-H460): 11.9 µM (inactive)
- GI50 (TK-10): 12 µM (inactive)
- GI50 (UO-31): 3.91 µM (inactive)
- GI50 (DU-145): 19.3 µM (inactive)
- GI50 (SF-268): 20 µM (inactive)
- GI50 (SK-OV-3): 13 µM (inactive)
- GI50 (HT-29): 18.4 µM (inactive)
- GI50 (MCF7): 15.4 µM (inactive)
- GI50 (SF-539): 8.83 µM (inactive)
- GI50 (KM12): 7.73 µM (inactive)
- GI50 (A549): 13.6 µM (inactive)
- GI50 (LOX IMVI): 9.29 µM (inactive)
- GI50 (Hs-578T): 11.9 µM (inactive)
- GI50 (RXF 393): 4.07 µM (inactive)
- GI50 (CCRF-CEM): 2.45 µM (inactive)
- GI50 (SNB-75): 9.2 µM (inactive)

Compound: CC(=O)Oc1c(C)cc2c(c1C)C(C)(C)CN2C(=O)C(C)(C)C
- GI50 (OVCAR-5): > 100 µM (inactive)
- GI50 (NCI-H460): > 100 µM (inactive)
- GI50 (TK-10): > 100 µM (inactive)
- GI50 (UO-31): 41.8 µM (inactive)
- GI50 (DU-145): > 100 µM (inactive)
- GI50 (SF-268): > 100 µM (inactive)
- GI50 (RPMI-8226): 53.8 µM (inactive)
- GI50 (SK-OV-3): > 100 µM (inactive)
- GI50 (HT-29): 33.1 µM (inactive)
- GI50 (MCF7): > 100 µM (inactive)
- GI50 (SF-539): > 100 µM (inactive)
- GI50 (KM12): > 100 µM (inactive)
- GI50 (A549): 83.8 µM (inactive)
- GI50 (LOX IMVI): > 100 µM (inactive)
- GI50 (Hs-578T): > 100 µM (inactive)
- GI50 (RXF 393): 84.9 µM (inactive)
- GI50 (CCRF-CEM): 65.9 µM (inactive)
- GI50 (SNB-75): 0.504 µM (active)

Compound: CNC(=O)c1nn[nH]c1Sc1c([N+](=O)[O-])ncn1C
- GI50 (OVCAR-5): > 100 µM (inactive)
- GI50 (NCI-H460): > 100 µM (inactive)
- GI50 (TK-10): > 100 µM (inactive)
- GI50 (UO-31): > 100 µM (inactive)
- GI50 (DU-145): > 100 µM (inactive)
- GI50 (SF-268): > 100 µM (inactive)
- GI50 (SK-OV-3): > 100 µM (inactive)
- GI50 (HT-29): > 100 µM (inactive)
- GI50 (MCF7): > 100 µM (inactive)
- GI50 (SF-539): > 100 µM (inactive)
- GI50 (KM12): > 100 µM (inactive)
- GI50 (A549): > 100 µM (inactive)
- GI50 (LOX IMVI): > 100 µM (inactive)
- GI50 (Hs-578T): > 100 µM (inactive)
- GI50 (RXF 393): > 100 µM (inactive)
- GI50 (CCRF-CEM): > 100 µM (inactive)

Compound: CCOC(=O)C1(C)CCc2sc(N)c(C#N)c21 (stereo not drawn)
- GI50 (OVCAR-5): > 100 µM (inactive)
- GI50 (NCI-H460): > 100 µM (inactive)
- GI50 (Malme-3M): > 100 µM (inactive)
- GI50 (TK-10): > 100 µM (inactive)
- GI50 (UO-31): > 100 µM (inactive)
- GI50 (RPMI-8226): > 100 µM (inactive)
- GI50 (HT-29): > 100 µM (inactive)
- GI50 (MCF7): > 100 µM (inactive)
- GI50 (KM12): > 100 µM (inactive)
- GI50 (A549): > 100 µM (inactive)
- GI50 (Hs-578T): > 100 µM (inactive)
- GI50 (RXF 393): > 100 µM (inactive)
- GI50 (CCRF-CEM): > 100 µM (inactive)
- GI50 (SNB-75): > 100 µM (inactive)

Compound: O=c1[nH]c(=O)n(C2OC(COP(=O)(O)OP(=O)(O)OC3OC(CO)C(O)C(O)C3O)C(O)C2O)cc1F (stereo not drawn)
- GI50 (OVCAR-5): 0.908 µM (active)
- GI50 (NCI-H460): < 0.014 µM (active)
- GI50 (SR): 0.0418 µM (active)
- GI50 (Malme-3M): 0.21 µM (active)
- GI50 (TK-10): 1.67 µM (inactive)
- GI50 (UO-31): 0.04 µM (active)
- GI50 (SF-268): 0.0475 µM (active)
- GI50 (RPMI-8226): < 0.01 µM (active)
- GI50 (SK-OV-3): 0.975 µM (active)
- GI50 (HT-29): 0.0582 µM (active)
- GI50 (SF-539): 0.0552 µM (active)
- GI50 (KM12): 0.0317 µM (active)
- GI50 (A549): 0.0149 µM (active)
- GI50 (LOX IMVI): 0.0314 µM (active)
- GI50 (RXF 393): 0.0522 µM (active)
- GI50 (CCRF-CEM): 0.0929 µM (active)
- GI50 (SNB-75): 1.64 µM (inactive)

Compound: CC(C)C1=CC23CCC4C(C)(C(=O)O)CCCC4(C)C2CC1C1C(=O)N(c2ccccc2)C(=O)C13 (stereo not drawn)
- GI50 (OVCAR-5): > 100 µM (inactive)
- GI50 (NCI-H460): 38.9 µM (inactive)
- GI50 (SR): > 100 µM (inactive)
- GI50 (Malme-3M): 67.9 µM (inactive)
- GI50 (TK-10): 43.5 µM (inactive)
- GI50 (UO-31): 43.7 µM (inactive)
- GI50 (SF-268): 41.1 µM (inactive)
- GI50 (RPMI-8226): > 100 µM (inactive)
- GI50 (SK-OV-3): 56.4 µM (inactive)
- GI50 (HT-29): 38.6 µM (inactive)
- GI50 (SF-539): 51.3 µM (inactive)
- GI50 (KM12): 27.9 µM (inactive)
- GI50 (A549): 31.6 µM (inactive)
- GI50 (LOX IMVI): 54.1 µM (inactive)
- GI50 (RXF 393): 27.4 µM (inactive)
- GI50 (CCRF-CEM): 56.6 µM (inactive)
- GI50 (SNB-75): 53.2 µM (inactive)
